Source: patent publication US4374149A, “α-{[(Arylalkyl)amino]alkyl}-4-hydroxy-3-(lower-alkylsul finyl)benzenemethanols” (Sterling Drug Inc., priority 1978, dated 1983)
Where a name gives a salt, the structure may show the parent alone.

What was measured:
blood pressure = experiment: Antihypertensive activity, sustained lowering of blood pressure, repeated oral medication, unanesthetized trained renal hypertensive dog; type: in vivo; conditions: tid., hydrochloride; for Actual percentage reduction in blood pressure observed at the indicated dose: 0.5 mg./kg.
From the text: Antihypertensive activity was also judged on the basis of sustained reduction of blood pressure observed in the unanesthetized trained renal hypertensive dog following repeated oral medication according to the procedure described by Lape et al., Arch.
^b MED10 = minimum repeated oral daily dose required to effect a

β-adrenergic = β-adrenergic blocking activity, inhibition of isoproterenol-elicited heart rate increase in pentobarbitalized dog; type: in vivo; conditions: i.v.; for Actual percentage inhibition of heart rate increase above control level observed at the indicated dose: 0.1 mg./kg.; for Dog β-blockade AED50 (approximate intravenous dose for 50% inhibition of isoproterenol-elicited heart rate increase): pentobarbitalized dog
Experimental: The β-adrenergic blocking activity was determined in the pentobarbitalized dog as judged by the ability of the test compound to inhibit the elevation in heart rate elicited by a 0.5 mcg./kg. i.v. injection of isoproterenol.
^e AED50 = approximate intravenous dose required to cause 50%

systolic blood pressure = experiment: Antihypertensive activity, reduction in systolic blood pressure, single oral medication, unanesthetized spontaneous hypertensive rat; type: in vivo; conditions: P.O.; for Actual reduction in blood pressure observed at the indicated dose: 16.0 mg./kg.; for Antihypertensive activity SH Rat AHD40 (single oral dose required to induce a 40 mm. average reduction in systolic blood pressure): unanesthetized SH rat
Experimental: Antihypertensive activity was determined on the basis of the observed reduction in systolic blood pressure measured according to the method of H. Kersten et al., J. Lab. and Clin. Med. 32, 1090 (1947) following a single oral medication in the unanesthetized spontaneous hypertensive rat described by Okamato et al., Japan Circulation J. 27, 282 (1963).
^a AHD40 = single oral dose required to induce a 40 mm. average

[1] = tested on: isolated rabbit ear artery; experiment: Vasodilator activity, perfusion pressure in isolated rabbit ear artery
From the text: (§1) Vasodilator activity was judged on the basis of observed reduction in perfusion pressure in the hind limb vasculature of the anesthetized dog determined according to the procedure described by Jandhyala et al., European J. Pharm. 17, 357 (1972), and also on the basis of percent reduction in perfusion pressure as measured in the isolated rabbit ear artery according to the method described by De LaLande et al., Aust. J. Exp. Biol. Med. Sci. 43, 639 (1965).
^d Vasodilation is expressed as the percentage reduction in perfusion

hind limb vasculature = experiment: Vasodilator activity, perfusion pressure in hind limb vasculature of anesthetized dog; type: in vivo
From the text: as §1
^c AED50 = approximate intraarterial dose required to cause a 50

| SMILES | Actual percentage reduction in blood pressure observed at the indicated dose (blood pressure) [%] | Renal Hypertensive Dog MED10 (minimum repeated oral daily dose for sustained lowering of blood pressure of 10% or greater) (blood pressure) [mg/kg] | Actual percentage inhibition of heart rate increase above control level observed at the indicated dose (β-adrenergic) [%] | Dog β-blockade AED50 (approximate intravenous dose for 50% inhibition of isoproterenol-elicited heart rate increase) (β-adrenergic; hydrochloride) [mg/kg] | Actual reduction in blood pressure observed at the indicated dose (systolic blood pressure; hydrochloride) [mm. Hg] | Antihypertensive activity SH Rat AHD40 (single oral dose required to induce a 40 mm. average reduction in systolic blood pressure) (systolic blood pressure; hydrochloride) [mg/kg] | Rabbit Ear Artery vasodilation (percentage reduction in perfusion pressure from control level) ([1]; 2 × 10^-4 M, 200 µM) [%] | other results |
| --- | --- | --- | --- | --- | --- | --- | --- | --- |
| COc1ccc(CCC(C)NCC(O)c2ccc(O)c([S+](C)[O-])c2)cc1 (single isomer, unassigned) [Example 10, 4-hydroxy-α-<{[3-(4-methoxyphenyl)-1-methylpropyl]amino}methyl>-3-(methylsulfinyl)benzenemethanol hydrochloride] | 8 | > 0.5 | 23 | > 0.10 | -17 | > 16.0 | 50 |  |
| COc1ccc(CC(C)NCC(O)c2ccc(O)c([S+](C)[O-])c2)cc1OC (stereo not drawn) [Example 16C, α-<{[2-(3,4-dimethoxyphenyl)-1-methylethyl]amino}methyl>-4-hydroxy-3-(methylsulfinyl)benzenemethanol acetate salt] |  |  | 38 |  |  |  |  | Dog β-blockade AED50 (approximate intravenous dose for 50% inhibition of isoproterenol-elicited heart rate increase) (β-adrenergic): > 0.1 mg/kg; Antihypertensive activity SH Rat AHD40 (single oral dose required to induce a 40 mm. average reduction in systolic blood pressure) (systolic blood pressure): 15.0 mg/kg; ED50 (hind limb vasculature; Canis lupus familiaris, read-out: Vasodilator activity Dog-Leg Perfusion AED50 (approximate intraarterial dose for 50 reduction in perfusion pressure)): 0.5 mg/kg; Rabbit Ear Artery vasodilation (percentage reduction in perfusion pressure from control level) ([1]; 5 × 10^-5 M, 50 µM): 75% |
| COc1ccc(CCC(C)NCC(O)c2ccc(O)c([S+](C)[O-])c2)cc1 (single isomer, unassigned) [Example 11, 4-hydroxy-α-<{[3-(4-methoxyphenyl)-1-methylpropyl]amino}methyl>-3-(methylsulfinyl)benzenemethanol hydrochloride] | 14 | < 0.5 |  | 0.25 | -14 | > 16.0 |  | Rabbit Ear Artery vasodilation (percentage reduction in perfusion pressure from control level) ([1]; 1 × 10^-4 M, 100 µM, hydrochloride): 38% |
| COc1ccc(CCC(C)NCC(O)c2ccc(O)c([S+](C)[O-])c2)cc1 (stereo not drawn) [Example 9D, 4-hydroxy-α-<{[3-(4-methoxyphenyl)-1-methylpropyl]amino}methyl>-3-(methylsulfinyl)benzenemethanol acetate salt] |  |  |  |  |  |  |  | Dog β-blockade AED50 (approximate intravenous dose for 50% inhibition of isoproterenol-elicited heart rate increase) (β-adrenergic; acetate salt): 0.0125 mg/kg; Antihypertensive activity SH Rat AHD40 (single oral dose required to induce a 40 mm. average reduction in systolic blood pressure) (systolic blood pressure; acetate salt): 20.0 mg/kg; Actual percentage reduction in perfusion pressure observed at the indicated dose (hind limb vasculature; 0.025 mg./kg. intraarterial): 25%; Vasodilator activity Dog-Leg Perfusion AED50 (approximate intraarterial dose for 50 reduction in perfusion pressure) (hind limb vasculature; intraarterial, anesthetized dog hind limb, acetate salt): > 0.025 mg/kg; Rabbit Ear Artery vasodilation (percentage reduction in perfusion pressure from control level) ([1]; 5 × 10^-5 M, 50 µM, acetate salt): 61% |
| COc1ccc(CCC(C)NCC(O)c2ccc(O)c([S+](C)[O-])c2)cc1 (single isomer, unassigned) [Example 12, 4-hydroxy-α-<{[3-(4-methoxyphenyl)-1-methylpropyl]amino}methyl>-3-(methylsulfinyl)benzenemethanol hydrochloride] | 14 | < 0.5 |  | 0.05 |  | 5 | 50 |  |
